Results: patent US20090215729A1, “MICROPARTICLE COMPOSITIONS TO MODIFY CANCER PROMOTING CELLS” (priority 2008, published 2009)

Test system: 4t1-luc cancer cells
Assay: syngeneic 4t1 mouse model of breast cancer, tumor volume growth
Type: in vivo
Details: Balb/c mice, tail vein injection 100 microliters, six administrations, twice a week starting day 1 after tumor challenge, caliper measurements, relative to PBS control
Procedure: In vivo testing was done with a syngeneic 4t1 model of breast cancer in immuno-competent Balb/c mice. […] Briefly, primary tumors were established in mammary tissue of 6 week old Balb/c mice by injection of 106 4t1-12B cells subcutaneously under the nipple. The mice were kept in standard housing and with a normal diet. Each group of mice (6-10 per group, 20 g±10% body weight) were injected (100 microliters) 2 times per week through the tail vein for a period of 3 weeks, starting either on day one or day six after the tumor challenge. Clodronate solution was dissolved in PBS and given intravenously starting on day one after tumor challenge. Control mice were injected intravenously through the tail vein with PBS. Tumor growth was measured in a blinded fashion with a caliper each week and tumor volumes were calculated using the measured dimensions. Body weights were recorded weekly, and mice were sacrificed on day 34.

Question: `O=P(O)(O)C(Cl)(Cl)P(=O)(O)O` [Clodronate (5.6 mg/mL) in PBS, clodronate] was tested. Which “tumor volume growth of 4t1-luc cancer cells” value did it give?
Answer: did not inhibit the growth of 4 μl tumors relative to PBS control

Question: And the “tumor volume growth of 4t1-luc cancer cells” value (listed as clodronate solution)?
Answer: unable to inhibit growth of 4 μl tumors as effectively as clodronate-hydroxyapatite
